Test results published in patent publication US4435404A, “Carbostyril derivatives” (priority 1980, dated 1984).

Key:
[1] = tested on: Gold blatt type renoprival hypertension rats (RHR); test: Hypotensive effect, Tail-cuff method, RHR; assay type: in vivo, rat; settings: 30 mg/kg oral, mean value ± standard deviation
Experimental: (§1) Hypotensive effect of the compounds were measured by determining the maximum blood pressure of the test animals according to a procedure of Tail-cuff method.
(§2) Test animals used were the following two types.
(1) Gold blatt type renoprival hypertension rats (RHR)
Wistar strain male rats having, 160-180 g of body weight, were anesthetized with ether and the left-side renal artery was pluged with a silver clip having 0.2 mm inside diameter, while the right-side renal artery was kept as it was without operation. Four (4) weeks after the operation, rats having the maximum blood pressure over 150 mmHg were selected and used as test animals which were abstained from food for overnight.
(§3) Each of compounds to be tested were administered orally and the blood pressure was measured before the administration and 1, 2, 4, 6 and 8 hours after the administration. The blood pressure was measured by using Recorder (Rectihoriz type 8S, San-ei Instrument) and Electrosthygmomanometer PE-300 (Macro Bio-systems, Houston, Tex.).

[2] = tested on: Deoxycorticosteroneacetate (DOCA)/saline hypertension rats (DHR); test: Hypotensive effect, Tail-cuff method, DHR; assay type: in vivo, rat; settings: 30 mg/kg oral, mean value ± standard deviation
Experimental: as §1, §2
(2) Deoxycorticosteroneacetate (DOCA)/saline hypertension rats (DHR)
Wistar strain male rats having 150-170 g of body weight, were anesthetized with ether and the left-side kidney was enucleated. One (1) week after the operation, 10 mg/kg of DOCA was injected subcutaneously once a week and 1% NaCl aqueous solution was given as drinking water. Five (5) weeks after the operation, rats having the maximum blood pressure over 150 mmHg were selected and used as test animals which were abstained from food for overnight.
as §3

[3] = tested on: collagen-induced aggregation in rabbit platelet; test: Inhibition effect on collagen-induced aggregation in rabbit platelet; assay type: cell-based; settings: Oryctolagus cuniculus, Platelet, read-out: Inhibition effect on collagen-induced aggregation
How it was run: (§4)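 Citrated rabbit PRP was diluted with PPP to 300,000 platelets/mm^3 for the ADP test or 450,000/mm^3 for the collagen test. Samples were preincubated with compound for 1 min at 37 °C before adding inducer: ADP solution at 7.5×10^-5 M (stock) or collagen supernatant. Light-transmittance aggregation was recorded at 1,100 rpm stirring, and percent inhibition was calculated against control aggregation rate, with acetylsalicylic acid as reference.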

[4] = tested on: arterial papillary muscle; test: Positive inotropic effect, blood-perfused arterial papillary muscle; set-up: species or system dog; settings: Canis lupus familiaris, into septal artery, read-out: Increasing of inotropic
Experimental: Positive inotropic effects of the novel carbostyril derivatives of the present invention were tested according to a method described by M. Endoh and K. Hashimoto, in "American Journal of Physiology", Vol. 218, No. 5, May, 1970, pages 1459-1463 as follows:
Adult bastard dogs of both sexes, weighing 8-12 kg, were anesthetized with pentobarbital-Na at a rate of 30 mg/kg by intraveneous administration. After another intraveneous administration of sodium heparin, 1,000 μ/kg, the test dog was sacrificed by blood letting. The heart of the dog was excised and immediately plunged into Locke's solution, then the arterial papillary muscle was excised out with interventicular septum. The septal artery was carefully isolated and cannulated with a polyethylene cannula and was ligated with thread. Septal arteries those of connected to other than the arterial papillary muscle were ligated with thread. Next, the donor adult bastard dogs, weighing 18-27 kg, were anesthetized with pentabarbital-Na (30 mg/kg, intraveneous injection), and further treated with intravenous administration of sodium heparin (1,000 μ/kg). The arterial papillary muscle was perfused through the septal artery being cannulated with the polyethylene cannula with the blood conducted from the carotid artery of the donor dog by aid of Peristaric pump. The perfusion pressure was maintained at 100 mmHg constantly. Then the muscle was electrically stimulated by an electronic stimulator through bipolar electrodes in contact with the interventicular septum. The strength of stimulation was 2 X (the minimum value for appearing the action), frequency 2 Hz, pulse duration 2 msec.
The isometric contraction generated was measured through a force-displacement transducer. The amount of blood flow in the coronary arteries was measured by determining the amount of the blood flow conducted to the septal artery by electromagnetic flow meter. All the data were recorded on an ink-writing recorder.
A solution containing a compound to be tested was injected into the septal artery through the rubber tube connected close to the shunk of the polyethylene cannula, in an amount of 10-30 μl.
The results obtained is shown in Table 4, in which the increasement (%) of contraction is indicated as the ratio of the contractions before and after the administration (injection) of the solution containing the test compound.

[5] = tested on: ADP-induced aggregation in rabbit platelet; test: Inhibition effect on ADP-induced aggregation in rabbit platelet; assay type: cell-based; settings: Oryctolagus cuniculus, Platelet
How it was run: as §4

Wistar strain male rats = test: Test of increasing effect of heart rate; assay type: in vivo, rat; settings: 30 mg/kg oral, 60 minutes after the administration
Experimental: Wistar strain male rats, having 180-230 g of body weight, were abstained from food for 24 hours, the electrocardiograms introduced from the second induction period were recorded on oscillograph. The heart rate was calculated from the electrocardiograms by observing them for 10 seconds several times. […] 60 Minutes after the administration, the heart rate was measured and increasing effect of the heart rate was calculated. Generally, an average heart rate of an usual Wistar strain male rat is about 320 beat/minute.

SMILES: O=C(CCCOc1ccc2[nH]c(=O)ccc2c1)N(CCO)C1CCCCC1 [No. 1, 6-{3-[N-(2-hydroxyethyl)-N-cyclohexylaminocarbonyl]propoxy}carbostyril]
- Maximum blood pressure after the administration (difference) ([1]; 1 hour): -27.0 ± 14.0 mmHg
- Maximum blood pressure after the administration (difference) ([1]; 2 hours): -28.6 ± 16.4 mmHg
- Maximum blood pressure after the administration (difference) ([1]; 4 hours): -32.4 ± 15.2 mmHg
- Maximum blood pressure after the administration (difference) ([1]; 6 hours): -35.0 ± 11.5 mmHg
- Maximum blood pressure after the administration (difference) ([1]; 8 hours): -41.3 ± 17.2 mmHg
- Maximum blood pressure after the administration (difference) ([2]; 1 hour): -46.0 ± 11.7 mmHg
- Maximum blood pressure after the administration (difference) ([2]; 2 hours): -42.6 ± 6.5 mmHg
- Maximum blood pressure after the administration (difference) ([2]; 4 hours): -37.6 ± 5.2 mmHg
- Maximum blood pressure after the administration (difference) ([2]; 6 hours): -34.4 ± 10.5 mmHg
- Maximum blood pressure after the administration (difference) ([2]; 8 hours): -29.0 ± 10.5 mmHg
- inhibition at 10 µM ([3]; concentration of the test compound solution 10^-5 mole): 100%
- inhibition at 1 µM ([3]; concentration of the test compound solution 10^-6 mole): 100%
- inhibition at 0.1 µM ([3]; concentration of the test compound solution 10^-7 mole): 60.1%
- activation at 3 nmol ([4]; dosage 3 n mol): 8.2%
- activation at 30 nmol ([4]; dosage 30 n mol): 54.5%
- inhibition at 100 µM ([5]; concentration of the test compound solution 10^-4 mole): 100%
- inhibition at 10 µM ([5]; concentration of the test compound solution 10^-5 mole, read-out: Inhibition effect on ADP-induced aggregation): 86%
- inhibition at 1 µM ([5]; concentration of the test compound solution 10^-6 mole, read-out: Inhibition effect on ADP-induced aggregation): 45%
- Increasing effect of heart rate (Wistar strain male rats): 42 Beat/min.
